One assay concerns MOLT-4 cells. In words: CTG (CellTiter-Glo) cell viability assay, MOLT-4. Format: cell-based. The settings on record: MOLT-4, 3 day, read-out: CTG Cell Viability Assay - MOLT-4 3 day: Average external-IC50. The method, then:
(§1) Compound-mediated viability effect on MOLT-4 and Caki-2 was quantitatively determined using the CellTiter-Glo® Luminescent Cell Viability Assay kit from Promega (Catalog number G7570) following manufacturer's recommended procedures. Briefly, MOLT-4 and Caki-2 cells were seeded into 384 well plates (Grenier Bio-One, Catalog number 781080) with a density of 10,000 cells per well. Compounds were then added to the assay plate with final top concentration of 10 µM and 1:3 dilution series with total of 9 doses. The final DMSO concentration is normalized to 0.2%. The assay plates were incubated at 37° C. for 3 days under 5% CO2. Then the assay plate was equilibrated at room temperature for 10 minutes. To determine cell viability, 30 uL CellTiter Glo reagent was added to each well and the assay plate was centrifuged at 1000 rpm for 30 second, incubated at room temperature for 10 min, and analyzed by detecting the luminescence using a multimode plate reader (EnVision 2105, PerkinElmer). The data was then analyzed by software Prism 7.0 from GraphPad and the dose response curves are fit using a three-parameter logistic equation to calculate IC50.
(§2) The letter codes for MOLT-4 IC50 include: A (<0.1 μM); B (0.1-1.0 μM); C (>1.0-3.0 μM); and D (>3.0 μM). The letter codes for Caki-2 IC50 include: A (<5 μM); B (5-10 μM); C (>10-30.0 μM); and D (>30.0 μM).
In general terms: Cellular ATP, detected with luciferase, serves as a proxy for viable cell number.

The next assay relates to Caki-2 cells. As to the kind of experiment: CTG (CellTiter-Glo) cell viability assay, Caki-2. Type of assay: cell-based. The conditions noted are these: Caki-2, 3-day, read-out: CTG Chempartner/PHA- Caki-2 3-day: Average external-IC50. The method, then:
as §1, §2

Like-named read-outs stand apart in the source and are kept apart here. Bounds are passed on as bounds.

On to `Cc1ncsc1-c1ccc([C@H](C)NC(=O)[C@@H]2C[C@@H](O)CN2C(=O)[C@@H](NC(=O)CCC2CCN(CCCNc3ccc(S(=O)(=O)NC(=O)c4ccc(N5CCN([C@@H](O)c6ccccc6-c6ccc(Cl)cc6)CC5)cc4Oc4cnc5[nH]ccc5c4)cc3S(=O)(=O)C(F)(F)F)CC2)C(C)(C)C)cc1` [I-128], for which the IC50 with MOLT-4 cells (Homo sapiens, MOLT-4, 72 h) is over 3000 nM; with Caki-2 cells (Homo sapiens, CAKI-2, 72 h) it was over 30000 nM.
On the same counts, the results for `Cc1ncsc1-c1ccc([C@H](C)NC(=O)[C@@H]2C[C@@H](O)CN2C(=O)[C@@H](NC(=O)CCCCCC(=O)N[C@@H]2CCN(CCCNc3ccc(S(=O)(=O)NC(=O)c4ccc(N5CCN(CC6=C(c7ccc(Cl)cc7)CC(C)(C)CC6)CC5)cc4Oc4cnc5[nH]ccc5c4)cc3S(=O)(=O)C(F)(F)F)C2)C(C)(C)C)cc1` [I-95] are over 3000 nM and over 30000 nM.
In the case of `C#Cc1ccc([C@H](C)NC(=O)[C@@H]2C[C@@H](O)CN2C(=O)[C@@H](NC(=O)CCCCCCC(=O)N2CCN(C[C@]3(C)CCC(c4ccc(Cl)cc4)=C(CN4CCN(c5ccc(C(=O)NS(=O)(=O)c6ccc(NCCCN7CCOCC7)c(S(=O)(=O)C(F)(F)F)c6)c(Oc6cnc7[nH]ccc7c6)c5)CC4)C3)CC2)C(C)(C)C)cc1` [I-138], the IC50 with MOLT-4 cells (Homo sapiens, MOLT-4, 72 h) was 100 to 1000 nM; with Caki-2 cells (Homo sapiens, CAKI-2, 72 h), 10000 to 30000 nM.
As to `Cc1ncsc1-c1ccc([C@H](C)NC(=O)[C@@H]2C[C@@H](O)CN2C(=O)[C@@H](NC(=O)CCCCCC(=O)N(C)CC[C@H](CSc2ccccc2)Nc2ccc(S(=O)(=O)NC(=O)c3ccc(N4CCC([C@H](O)c5ccccc5-c5ccc(Cl)cc5)CC4)cc3)cc2S(=O)(=O)C(F)(F)F)C(C)(C)C)cc1` [I-73], the IC50 in the assay with MOLT-4 cells (Homo sapiens, MOLT-4, 72 h) is over 3000 nM; in the assay with Caki-2 cells (Homo sapiens, CAKI-2, 72 h), over 30000 nM.
The like results for `Cc1ncsc1-c1ccc([C@H](C)NC(=O)[C@@H]2C[C@@H](O)CN2C(=O)[C@@H](NC(=O)CCCCCC(=O)N(C)CCCNc2ccc(S(=O)(=O)NC(=O)c3ccc(N4CCN(Cc5ccccc5-c5ccc(Cl)cc5)CC4)cc3Oc3cnc4[nH]ccc4c3)cc2S(=O)(=O)C(F)(F)F)C(C)(C)C)cc1` [I-61] were, in that order, over 3000 nM and over 30000 nM.
On the same counts, the results for `Cc1ncsc1-c1ccc([C@H](C)NC(=O)[C@@H]2C[C@@H](O)CN2C(=O)[C@@H](NC(=O)CCCC(=O)N2CCN(CCCNc3ccc(S(=O)(=O)NC(=O)c4ccc(N5CCN(CC6=C(c7ccc(Cl)cc7)CC(C)(C)CC6)CC5)cc4Oc4cnc5[nH]ccc5c4)cc3S(=O)(=O)C(F)(F)F)CC2)C(C)(C)C)cc1` [I-78] are over 3000 nM and over 30000 nM.
For the compound `Cc1ncsc1-c1ccc([C@H](C)NC(=O)[C@@H]2C[C@@H](O)CN2C(=O)[C@@H](NC(=O)CCC(=O)N2CCN(CC[C@H](CSc3ccccc3)Nc3ccc(S(=O)(=O)NC(=O)c4ccc(N5CCC([C@@H](O)c6ccccc6-c6ccc(Cl)cc6)CC5)cc4)cc3S(=O)(=O)C(F)(F)F)CC2)C(C)(C)C)cc1` [I-119], the IC50 is over 3000 nM with MOLT-4 cells (Homo sapiens, MOLT-4, 72 h) and over 30000 nM in the assay with Caki-2 cells (Homo sapiens, CAKI-2, 72 h).
In the case of `Cc1ncsc1-c1ccc([C@H](C)NC(=O)[C@@H]2C[C@@H](O)CN2C(=O)[C@@H](NC(=O)CCCCCN(C)CCNc2ccc(S(=O)(=O)NC(=O)c3ccc(N4CCN(CC5=C(c6ccc(Cl)cc6)CC(C)(C)CC5)CC4)cc3Oc3cnc4[nH]ccc4c3)cc2S(=O)(=O)C(F)(F)F)C(C)(C)C)cc1` [I-77], the IC50 is 100 to 1000 nM in the assay with MOLT-4 cells (Homo sapiens, MOLT-4, 72 h) and 10000 to 30000 nM with Caki-2 cells (Homo sapiens, CAKI-2, 72 h).
For `Cc1ncsc1-c1ccc([C@H](C)NC(=O)[C@@H]2C[C@@H](O)CN2C(=O)[C@@H](NC(=O)CCCCCC(=O)NCCCNc2ccc(S(=O)(=O)NC(=O)c3ccc(N4CCC([C@H](O)c5ccccc5-c5ccc(Cl)cc5)CC4)cc3Oc3cnc4[nH]ccc4c3)cc2S(=O)(=O)C(F)(F)F)C(C)(C)C)cc1` [I-56], the IC50 was over 3000 nM with MOLT-4 cells (Homo sapiens, MOLT-4, 72 h) and over 30000 nM in the assay on Caki-2 cells (Homo sapiens, CAKI-2, 72 h).
For `Cc1ncsc1-c1ccc([C@H](C)NC(=O)[C@@H]2C[C@@H](O)CN2C(=O)[C@@H](NC(=O)CCCCCC(=O)N2CCN(CC[C@H](CSc3ccccc3)Nc3ccc(S(=O)(=O)NC(=O)c4ccc(N5CC6(CCC6)C5)cc4)cc3S(=O)(=O)C(F)(F)F)CC2)C(C)(C)C)cc1` [I-45], the IC50 is over 3000 nM in the assay with MOLT-4 cells (Homo sapiens, MOLT-4, 72 h) and over 30000 nM in the assay on Caki-2 cells (Homo sapiens, CAKI-2, 72 h).
With `Cc1ncsc1-c1ccc([C@H](C)NC(=O)[C@@H]2C[C@@H](O)CN2C(=O)[C@@H](NC(=O)CCCCCC(=O)N2CCN(CC[C@H](CSc3ccccc3)Nc3ccc(S(=O)(=O)NC(=O)c4ccc(N5CCC6(CC5)CC(N5CCC[C@H]5c5ccccc5C5CC5)C6)cc4)cc3S(=O)(=O)C(F)(F)F)CC2)C(C)(C)C)cc1` [I-88], the IC50 with MOLT-4 cells (Homo sapiens, MOLT-4, 72 h) was 1000 to 3000 nM; in the assay with Caki-2 cells (Homo sapiens, CAKI-2, 72 h) it was over 30000 nM.
On the same counts, the results for `Cc1ncsc1-c1ccc([C@H](C)NC(=O)[C@@H]2C[C@@H](O)CN2C(=O)[C@@H](NC(=O)CCCCC(=O)N2CCC3(CCN(Cc4ccc(-c5ccc(Cl)cc5)c(CN5CCN(c6ccc(C(=O)NS(=O)(=O)c7ccc(N[C@H](CCN(C)C)CSc8ccccc8)c([N+](=O)[O-])c7)cc6)CC5)c4)CC3)CC2)C(C)(C)C)cc1` [I-17] are over 3000 nM and over 30000 nM.
As to `Cc1ncsc1-c1ccc([C@H](C)NC(=O)[C@@H]2C[C@@H](O)CN2C(=O)[C@@H](NC(=O)CCCCCC(=O)N2CCC(NCCCNc3ccc(S(=O)(=O)NC(=O)c4ccc(N5CCN(CC6=C(c7ccc(Cl)cc7)CC(C)(C)CC6)CC5)cc4Oc4cnc5[nH]ccc5c4)cc3S(=O)(=O)C(F)(F)F)CC2)C(C)(C)C)cc1` [I-87], the IC50 in the assay with MOLT-4 cells (Homo sapiens, MOLT-4, 72 h) is over 3000 nM; in the assay with Caki-2 cells (Homo sapiens, CAKI-2, 72 h), over 30000 nM.
Turning to `Cc1ncsc1-c1ccc([C@H](C)NC(=O)[C@@H]2C[C@@H](O)CN2C(=O)[C@@H](NC(=O)CCCCCN2CCC(CNc3ccc(S(=O)(=O)NC(=O)c4ccc(N5CCN(CC6=C(c7ccc(Cl)cc7)CC(C)(C)CC6)CC5)cc4Oc4cnc5[nH]ccc5c4)cc3S(=O)(=O)C(F)(F)F)CC2)C(C)(C)C)cc1` [I-75], the IC50 in the assay on MOLT-4 cells (Homo sapiens, MOLT-4, 72 h) was 100 to 1000 nM; with Caki-2 cells (Homo sapiens, CAKI-2, 72 h) it was over 30000 nM.
In the case of `Cc1ncsc1-c1ccc([C@H](C)NC(=O)[C@@H]2C[C@@H](O)CN2C(=O)[C@@H](NC(=O)CCCCCC(=O)N2CCN(Cc3ccc(-c4ccc(Cl)cc4)c([C@H](O)C4CCN(c5ccc(C(=O)NS(=O)(=O)c6ccc(NCCCN(C)C)c(S(=O)(=O)C(F)(F)F)c6)c(Oc6cnc7[nH]ccc7c6)c5)CC4)c3)CC2)C(C)(C)C)cc1` [I-111], the IC50 was over 3000 nM in the assay with MOLT-4 cells (Homo sapiens, MOLT-4, 72 h) and over 30000 nM in the assay with Caki-2 cells (Homo sapiens, CAKI-2, 72 h).
As to `Cc1ncsc1-c1ccc([C@H](C)NC(=O)[C@@H]2C[C@@H](O)CN2C(=O)[C@@H](NC(=O)CCC2CCN(CCCNc3ccc(S(=O)(=O)NC(=O)c4ccc(N5CCN([C@H](O)c6ccccc6-c6ccc(Cl)cc6)CC5)cc4Oc4cnc5[nH]ccc5c4)cc3S(=O)(=O)C(F)(F)F)CC2)C(C)(C)C)cc1` [I-129], the IC50 in the assay with MOLT-4 cells (Homo sapiens, MOLT-4, 72 h) is over 3000 nM; in the assay on Caki-2 cells (Homo sapiens, CAKI-2, 72 h), over 30000 nM.
As to `Cc1ncsc1-c1ccc([C@H](C)NC(=O)[C@@H]2C[C@@H](O)CN2C(=O)[C@@H](NC(=O)CNCCCNc2ccc(S(=O)(=O)NC(=O)c3ccc(N4CCN(CC5=C(c6ccc(Cl)cc6)CC(C)(C)CC5)CC4)cc3Oc3cnc4[nH]ccc4c3)cc2S(=O)(=O)C(F)(F)F)C(C)(C)C)cc1` [I-115], the IC50 in the assay with MOLT-4 cells (Homo sapiens, MOLT-4, 72 h) is over 3000 nM; in the assay with Caki-2 cells (Homo sapiens, CAKI-2, 72 h) it was over 30000 nM.
On the same counts, the results for `Cc1ncsc1-c1ccc([C@H](C)NC(=O)[C@@H]2C[C@@H](O)CN2C(=O)[C@@H](NC(=O)CCCCCC(=O)NCC[C@H](CSc2ccccc2)Nc2ccc(S(=O)(=O)NC(=O)c3ccc(N4CCC([C@H](O)c5ccccc5-c5ccc(Cl)cc5)CC4)cc3)cc2S(=O)(=O)C(F)(F)F)C(C)(C)C)cc1` [I-70] are over 3000 nM and over 30000 nM.
In the case of `Cc1ncsc1-c1ccc([C@H](C)NC(=O)[C@@H]2C[C@@H](O)CN2C(=O)[C@@H](NC(=O)C#CC2CCN(CCCNc3ccc(S(=O)(=O)NC(=O)c4ccc(N5CCC([C@@H](O)c6ccccc6-c6ccc(Cl)cc6)CC5)cc4Oc4cnc5[nH]ccc5c4)cc3S(=O)(=O)C(F)(F)F)CC2)C(C)(C)C)cc1` [I-117], the IC50 in the assay with MOLT-4 cells (Homo sapiens, MOLT-4, 72 h) was over 3000 nM; in the assay with Caki-2 cells (Homo sapiens, CAKI-2, 72 h), over 30000 nM.
For `Cc1ncsc1-c1ccc([C@H](C)NC(=O)[C@@H]2C[C@@H](O)CN2C(=O)[C@@H](NC(=O)CCCCCCCCC(=O)NCc2ccc(-c3ccc(Cl)cc3)c(CN3CCN(c4ccc(C(=O)NS(=O)(=O)c5ccc(N[C@H](CCN(C)C)CSc6ccccc6)c([N+](=O)[O-])c5)cc4)CC3)c2)C(C)(C)C)cc1` [I-20], the IC50 is over 3000 nM in the assay on MOLT-4 cells (Homo sapiens, MOLT-4, 72 h) and over 30000 nM in the assay with Caki-2 cells (Homo sapiens, CAKI-2, 72 h).
Consider `Cc1ncsc1-c1ccc([C@H](C)NC(=O)[C@@H]2C[C@@H](O)CN2C(=O)[C@@H](NC(=O)CCCCCC(=O)N2CCN(C[C@]3(C)CCC(c4ccc(Cl)cc4)=C(CN4CCN(c5ccc(C(=O)NS(=O)(=O)c6ccc(NCCCN7CCOCC7)c(S(=O)(=O)C(F)(F)F)c6)c(Oc6cnc7[nH]ccc7c6)c5)CC4)C3)CC2)C(C)(C)C)cc1` [I-132], for which the IC50 is 100 to 1000 nM in the assay with MOLT-4 cells and over 30000 nM in the assay with Caki-2 cells.
For the compound `Cc1ncsc1-c1ccc([C@H](C)NC(=O)[C@@H]2C[C@@H](O)CN2C(=O)[C@@H](NC(=O)CCCC(=O)N2CCN(CC[C@H](CSc3ccccc3)Nc3ccc(S(=O)(=O)NC(=O)c4ccc(N5CCC([C@@H](O)c6ccccc6-c6ccc(Cl)cc6)CC5)cc4)cc3S(=O)(=O)C(F)(F)F)CC2)C(C)(C)C)cc1` [I-110], the IC50 was 100 to 1000 nM in the assay on MOLT-4 cells (Homo sapiens, MOLT-4, 72 h) and over 30000 nM in the assay on Caki-2 cells (Homo sapiens, CAKI-2, 72 h).

The values above are taken from patent US20260092057A1, “BCL-XL/BCL-2 DEGRADERS AND USES THEREOF” (Kymera Therapeutics, Inc., priority 2022, published 2026).
